{"source": "patent US20060063702A1", "about": "“Neuromedin U 2 receptor agonists and uses thereof” (priority 2004, published 2006)", "key": {"[1]": {"biological_target": "T1, human NMU-2R (Homo sapiens, UniProt Q9GZQ4)", "T1 construct": "expressed in transfected cells", "T1 sequence (Q9GZQ4 whole entry)": "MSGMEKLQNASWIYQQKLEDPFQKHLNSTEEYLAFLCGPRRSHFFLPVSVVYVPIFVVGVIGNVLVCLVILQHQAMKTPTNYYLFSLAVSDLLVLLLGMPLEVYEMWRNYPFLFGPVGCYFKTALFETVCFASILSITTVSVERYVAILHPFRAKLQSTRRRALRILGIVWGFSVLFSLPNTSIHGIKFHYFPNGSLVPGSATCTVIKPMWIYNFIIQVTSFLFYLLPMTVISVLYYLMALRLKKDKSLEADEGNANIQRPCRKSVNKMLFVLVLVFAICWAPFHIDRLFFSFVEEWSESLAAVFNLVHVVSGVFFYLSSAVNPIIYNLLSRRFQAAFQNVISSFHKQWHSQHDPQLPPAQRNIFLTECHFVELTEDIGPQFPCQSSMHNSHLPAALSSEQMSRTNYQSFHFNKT", "assay": "NMU-2R reporter gene (luciferase) assay in HEK-293/NMU-2R/3MCS/Luci cells", "type": "cell-based", "conditions": "for activation of NMU-2R, expression of reporter gene luciferase: in the presence of forskolin 5 μmol/L", "method": "Establishment of stable cell line: HEK-293 cells were maintained in DMEM with 10% FBS (Gibco) and 1% non-essential amino acid at 37° C. […] Twenty-four hours after transfection, cell culture medium was replaced with fresh medium containing G418 at final concentration of 800 mg/L. Stable cell line was generated using limited dilution based on the luciferase activity in the presence of NmU and forskolin (5 μmol/L). The stable cell line was named HEK-293/NMU-2R/3MCS/Luci cells. Luciferase assay and screening for NMU-2R agonists: The luciferase activity was measured according to the protocol from Promega. Briefly, 100 μL of HEK-293/NMU-2R/3MCS/Luci cells at 4×10^4 cells/mL were added into each well of white 96 -well plate (flat, clear bottom, Costar). The cells were maintained in DMEM containing 10% FBS (Gibco) and 1% non-essential amino acid, and incubated at 37° C., 5% CO2 overnight. […] Finally, 110 μL of luciferase substrate Bright GloTM (Promega) was added into each well. Luciferase activity was measured using […] (Molecular Device)."}, "[2]": {"biological_target": "T1, human NMU-2R", "conditions": "literature refs 5-7, 15-20; cited from earlier work"}, "[3]": {"test_system": "other GPCRs", "assay": "Specificity assay in more than twenty other GPCR stable cell lines", "type": "cell-based", "method": "Several stable cell lines were generated to examine the specificity of the compounds. First, the activity of the compounds in cell line expressing the reporter gene alone were tested. Since the reporter gene cell line was not transfected with NMU-2R expression vector, compounds that can activate the reporter gene expression in this cell line were not NMU-2R agonists. In addition, the compounds in cell lines expressing other GPCRs were tested. More than twenty different GPCR stable cell lines were generated for the specificity assay."}, "[4]": {"biological_target": "T2, NMU-1R (Homo sapiens, UniProt Q9HB89)", "T2 sequence (Q9HB89 1-426)": "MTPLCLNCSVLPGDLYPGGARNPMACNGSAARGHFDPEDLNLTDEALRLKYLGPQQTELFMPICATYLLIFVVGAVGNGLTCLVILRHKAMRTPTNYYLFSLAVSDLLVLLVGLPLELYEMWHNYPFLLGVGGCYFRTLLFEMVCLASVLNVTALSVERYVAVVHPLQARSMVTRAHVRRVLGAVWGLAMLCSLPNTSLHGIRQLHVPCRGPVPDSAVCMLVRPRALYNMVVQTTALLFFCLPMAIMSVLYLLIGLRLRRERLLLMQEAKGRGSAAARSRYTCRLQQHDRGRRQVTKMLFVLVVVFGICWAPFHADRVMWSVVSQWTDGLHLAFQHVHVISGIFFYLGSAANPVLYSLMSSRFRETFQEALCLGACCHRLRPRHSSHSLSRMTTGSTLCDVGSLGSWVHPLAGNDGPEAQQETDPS", "assay": "Activity for NMU-1R", "type": "cell-based"}}, "note": "“Also recorded” adds a separate entry of the source. Where no end group is shown, it is not given here."}
{"molecule": "Neuromedin U (FRVDEEFQSPFASQSRGYFLFRPRN; ends and bridges not checked; UniProt P48645 142-166, looked up) [NmU, peptide hormone, natural ligand for NMU-2R]", "values": [{"measurement": "induction of reporter gene expression", "setting": "[1]; NmU alone, without forskolin", "value": "only slightly induced"}, {"measurement": "activation of NMU-2R, expression of reporter gene luciferase", "setting": "[1]", "value": "best response; also recorded: significantly increased"}, {"measurement": "potency of receptor activation", "setting": "[2]", "value": "nanomolar range"}]}
{"molecule": "COc1ccc(-c2oc3c(CC=C(C)C)c(O[C@@H]4O[C@H](CO)[C@@H](O)[C@H](O)[C@H]4O)cc(O)c3c(=O)c2O[C@@H]2O[C@@H](C)[C@H](O)[C@@H](O)[C@H]2O)cc1", "note": "[Icariin]", "values": [{"measurement": "activation of NMU-2R, expression of reporter gene luciferase", "setting": "[1]", "value": "potential NMU-2R agonists"}]}
{"molecule": "C[C@@H]1O[C@@H](OC[C@H]2O[C@@H](Oc3c(-c4ccc(O)c(O)c4)oc4cc(O)cc(O)c4c3=O)[C@H](O)[C@@H](O)[C@@H]2O)[C@H](O)[C@H](O)[C@H]1O", "note": "[Rutin]", "values": [{"measurement": "effect on other GPCRs", "setting": "[3]", "value": "no activity"}, {"measurement": "activity for NMU-1R", "setting": "[4]", "value": "no activity"}]}
{"molecule": "COc1ccc([C@@H]2CC(=O)c3c(O)cc(O[C@@H]4O[C@H](CO[C@@H]5O[C@@H](C)[C@H](O)[C@@H](O)[C@H]5O)[C@@H](O)[C@H](O)[C@H]4O)cc3O2)cc1O", "note": "[Hesperidin]", "values": [{"measurement": "activation of NMU-2R, expression of reporter gene luciferase", "setting": "[1]", "value": "potential NMU-2R agonists"}]}
